Read-outs that look alike come from different tables or passages of the source. Marks after values point to notes of the source that are not given here.
Tests used:
[1] = system: Human primary lung fibroblasts from IPF donors; experiment: Fibroblast-to-Myofibroblast Transition (FMT) assay; format: cell-based; details: for IC50: Homo sapiens, Primary lung fibroblast, 1.25 ng/ml TGF-b1
Procedure: OX1 was evaluated in a primary cell-based Fibroblast-to-Myofibroblast Transition (FMT) assay; an in vitro assay relevant to idiopathic pulmonary fibrosis (TPF). Human primary lung fibroblasts from three (3) IPF donors (IPF06, IPF07, and IPF08) were triggered using 1.25 ng/ml TGF-b1 to induce FMT, one hour after application of compounds. OX1 and Nintedanib (approved drug for TPF) were applied in […] in semi-log dilutions with the top concentration at […] to construct eight (8)-point concentration response curve (CRC) in biological duplicates (ie. on two (2) different cell plates at on (1) occasion). SB525334 was used at […] in 0.1% DMSO as a positive validation control. The readouts at 72 hours were high content analysis (HCA) for aSMA expression and DAPI staining for nuclear count as measurement of potential cytotoxic effects.

[2] = system: C57B/L6 mice exposed to bleomycin; experiment: Example 1: prophylactic treatment of mice exposed to bleomycin (IPF model); format: in vivo, mouse; details: OX1, OX3, Nintedanib 30 mg/kg QD, Pirfenidone 100 mg/kg BID; for body weight course over 21 days: bleomycin mice, oral gavage day -1 to 20; for neutrophil migration into BALF / number of lymphocytes in BALF / total cell (leukocyte) count in BALF / increased collagen (fibrosis) score, trichrome / mean Ashcroft score (lung histology) / mean score for mixed peribronchiolar/perivascular inflammation: day 21; for neutrophil migration into BALF / number of lymphocytes in BALF / total cell (leukocyte) count in BALF: oral; for increased collagen (fibrosis) score, trichrome / mean Ashcroft score (lung histology) / mean score for mixed peribronchiolar/perivascular inflammation: compared to vehicle (Group 2)
Description: 4-(5-phenyl-3-{3-[3-(4-trifluoromethyl-phenyl)-ureido]-propyl}-pyrazol-1-yl)-benzenesulfonamide (PTUPB) [termed OX1] was compared to Pirfenidone, Nintedanib, and GSK225629415 [termed OX3] for treatment of IPF using an established model for IPF treating, which is prophylactic treatment of mice exposed to the chemotherapeutic agent bleomycin. […] Pirfenidone and Nintedanib are standard of care for the treatment of idiopathic pulmonary fibrosis and served as reference compounds in the experiment.
C57B/L6 mice were used in the experiments. When used, Bleomycin was administered intra-oropharyngeally, 1.5 U/kg, QD per established protocol. The test articles were dosed via oral gavage in 200 μL/day vehicle. The doses and formulations of test articles were selected based on the literature describing the lowest doses capable of eliciting pharmacological action.
Animals were dosed with the test articles (or vehicle) starting at day −1 to day 20. On day 1, daily doses of Bleomycin commenced in all but group 1 (negative control) which received the vehicle. On day 21, all animals were weighed and sacrificed. After lungs and bronco-alveolar lavage fluid (BALF) were harvested, they were prepared according to standard procedures for further analysis and histology. All animals were assessed twice a week for body weight and overall appearance. Efficacy endpoints measured in this study included lung weight, total leukocytes, and histology as determined by Mason's Trichrome stain and scored using a modified Ashcroft score.
The following parameters were measured in bronchoalveolar fluid (BALF): 1) soluble collagen and 2) differential leukocyte counts for different leukocyte populations.
After weighing and removal of BALF from the lungs, they were inflated and fixed using 10% neutral buffered formalin for histopathology analysis. Fifty-four formalin-fixed lung samples from mice were submitted to HistoTox Labs and were processed routinely. Two slides from each block were sectioned and stained with hematoxylin and eosin (H&E) or Masson's trichrome. Glass slides were evaluated with light microscopy by a board-certified veterinary pathologist. Lung sections were scored according to the modified Ashcroft scale.

[3] = system: C57BL/6 mice, bleomycin-induced fibrotic lung injury; experiment: Example 2: therapeutic treatment in bleomycin-induced idiopathic pulmonary fibrosis mouse model; format: in vivo; details: OX1 60 mg/kg, Pirfenidone 100 mg/kg
Description: The purpose of this study is to induce fibrotic lung injury in mice via a single administration of a glycopeptide antibiotic, bleomycin, in order to evaluate the efficacy of dual sEH and COX-2 inhibitor OX-1 in treating and reducing the symptoms associated with idiopathic pulmonary fibrosis. Pirfenidone, standard of care for the treatment of idiopathic pulmonary fibrosis, was used as a reference compound.
Male C57BL/6 mice from Charles River Laboratories aging of 7-8 weeks and weighing around 18-22 g at the time of their enrollment were used in the study.
Doses of OX1 at 60 mg/kg, Pirfenidone at 100 mg/kg, and the disease inducer Bleomycin at 1.5 mg/kg were used. A dosing rate of 10 mL/kg (approximately 0.2 mL/mouse according to their body weight) of OX1 was administered orally once daily to the mice. The mice received OX1 at 60 mg/kg once daily. A dosing rate of 10 mL/kg (approximately 0.2 mL/mouse according to their body weight) of Pirfenidone solution was administered once daily to the mice of the groups receiving Pirfenidone orally at the dose of 100 mg/kg once daily. A single intratracheal instillation of approximately 50 μL (1.5 mg/kg with a dosing rate of 2.5 mL/kg in sterile 0.9% saline) of bleomycin solution was administered to all mice except the sham group on day 0. Animals in the Sham group received one intratracheal instillation of approximately 50 μL of 0.9% saline solution on Day 0 and returned to their respective cages.
Treatment with the vehicle or test articles were initiated and administered starting on day 7 to day 21 as scheduled and described in Table 1 above. All test articles, reference compound and vehicle were administered to animals orally once daily. Food and water were given ad libitum. Daily observations of the behavioral and general health status of the animals were done. Daily body weight was also measured.
Prior to physiological assessment, all mice were introduced to the plethysmograph chamber environment. After the acclimatization period, the functional respiratory parameters were assessed by the whole-body plethysmograph on Day 0 (before bleomycin instillation), 7, 14 and 21 post-bleomycin instillation. Each measurement was performed with a mouse placed alone in an unrestrained whole-body plethysmography chamber (Buxco Electronics Inc.) to measure respiratory functions. The functional respiratory parameters analyzed included; the respiratory rate, the PenH ([…]) and the inspiratory/expiratory time measurements.
On the surgery day (Day 21), the mice were anesthetized, instrumented and arterial blood oxygen saturation (SpO2) was recorded. Blood oxygen saturation was read off of the pulse oximeter (STARR Life Sciences MouseOx Plus system, Oakmont, Pa.) with the probe attached to the right thigh of the animal. The saturation values were measured in percentage (%). At the moment of the sacrifice, the mouse thoracic cavity was open to expose the lungs and all mice were euthanatized by exsanguination. The trachea was then connected to the cannula of a perfusion system. The left lung was clamped while 1.5 mL of cold PBS solution (3×500 μL) was injected by the trachea to perform a bronchoalveolar lavage fluid (BALF) on the right lobe of the lungs and was collected on ice for further analysis. The total cells count with cells differential, the cytokine levels including TNF-α, TGF-β, IL-4, IL-5 and IL-17a, the total protein content as well as the soluble collagen were assessed in the BALF samples. Once collected, 300 μL of the BALF was transferred in an EDTA tube, kept at 2-4° C. and shipped to Biovet Inc. for the total cells count with cells differential analysis. The remaining BALF sample was centrifuged at 1200 rpm for 10 minutes at 4° C. to remove cells. The supernatant was aliquots and frozen at−80° C. until analysis was performed. […]

[4] = lung histopathology day 21, mean
[5] = mean, BLM mice, oral once daily day 7 to 21

SMILES: COC(=O)c1ccc2c(c1)NC(=O)/C2=C(\Nc1ccc(N(C)C(=O)CN2CCN(C)CC2)cc1)c1ccccc1 [Nintedanib]
- Loss of Nuclei ([1]; DAPI staining, nuclear count as measure of potential cytotoxic effects, 72 hours): Yes
- IC50 ([1]; donor IPF06, readout at 72 hours, read-out: αSMA inhibition IC50 (μM), Patient Identifier IPF06): 0.6 µM
- IC50 ([1]; donor IPF07, readout at 72 hours, read-out: αSMA inhibition IC50 (μM), Patient Identifier IPF07): 0.6 µM
- IC50 ([1]; donor IPF08, readout at 72 hours, read-out: αSMA inhibition IC50 (μM), Patient Identifier IPF08): 0.4 µM
- IC50 ([1]; mean of three IPF donors, 72 hours, read-out: αSMA inhibition IC50 (μM), Mean): 0.5 µM
- body weight course over 21 days [2]: sustained weight loss
- neutrophil migration into BALF [2]: effective
- number of lymphocytes in BALF [2]: trend increasingly lower
- total cell (leukocyte) count in BALF [2]: largest reduction
- increased collagen (fibrosis) score, trichrome [2]: the highest
- mean Ashcroft score (lung histology) [2]: the highest
- mean score for mixed peribronchiolar/perivascular inflammation [2]: similar

SMILES: Cc1ccc(=O)n(-c2ccccc2)c1 [Pirfenidone]
- Eosinophils (cells) ([3]; BALF day 21, mean): 874 cells
- Lymphocytes (cells) ([3]; BALF day 21, mean): 174517 cells
- Macrophages (cells) ([3]; BALF day 21, mean): 204110 cells
- Neutrophils (cells) ([3]; BALF day 21, mean): 6999 cells
- Soluble collagen ([3]; BALF day 21, mean): 197.82 µg
- Total BALF cytokines (pg) IL-4 ([3]; BALF day 21, mean): 0.00 pg
- Total BALF cytokines (pg) IL-5 ([3]; BALF day 21, mean): 2.17 pg
- Total BALF cytokines (pg) IL-6 ([3]; BALF day 21, mean): 11.98 pg
- Total BALF cytokines (pg) IL-17 ([3]; BALF day 21, mean): 0.00 pg
- Total BALF cytokines (pg) IP-10 ([3]; BALF day 21, mean): 15.24 pg
- Total BALF cytokines (pg) LIF ([3]; BALF day 21, mean): 24.67 pg
- Total BALF cytokines (pg) MIG ([3]; BALF day 21, mean): 8.58 pg
- Total BALF cytokines (pg) TNFa ([3]; BALF day 21, mean): 0.00 pg
- Total TGFβ ([3]; BALF day 21, mean): 472.64 pg
- Total cell counts (cells) ([3]; BALF day 21, mean): 386500 cells
- Percent Survival (%) ([3]; BLM mice, oral once daily day 7 to 21): 91.70%
- Ashcroft score [3, 4]: 3.5 ††
- Collagen content (%) [3, 4]: 5.91%
- Pulmonary foci (%) [3, 4]: 7.46%
- Body weight changes from day 0 (%) [3, 5]: 2.47%
- Body weight changes from day 7 (%) [3, 5]: 6.49%
- body weight course over 21 days [2]: sustained weight loss
- neutrophil migration into BALF [2]: did not exhibit any effects
- number of lymphocytes in BALF [2]: trend increasingly lower
- total cell (leukocyte) count in BALF [2]: did not demonstrate the same level of reduction
- increased collagen (fibrosis) score, trichrome [2]: slightly lower
- mean Ashcroft score (lung histology) [2]: slightly lower
- mean score for mixed peribronchiolar/perivascular inflammation [2]: similar

From US20220218667A1, “DUAL INHIBITORS OF SOLUBLE EPOXIDE HYDROLASE AND METHODS OF USE THEREOF” (OROX Biosciences, Inc., priority 2019, published 2022)
